In ChEMBL document CHEMBL3507680, “University of Dundee, Gates Library screen for HepG2 cell viability”:

assay: Human HepG2 cell viability assay in 384 well format; type: toxicity, cell-based; parameters: dose 125 nL, time 70.5 hour; cytotoxicity at 70.5 h: concentration not given beside the values; details: HepG2 cells, read-out: Inhibition

First: CC(C)(CNC(=O)Nc1cccc(-c2cccs2)c1)C(N)=O
Second: O=C(CNC(=O)Nc1cccc(-c2nccs2)c1)NCCO
The cytotoxicity at 70.5 h of the first is higher: 0.351% for the first, -2.39% for the second.

First: Cc1cccc(CNC(Cn2cncn2)c2ccccc2)c1C (stereo not given)
Second: COc1ccc(CNC(Cn2cncn2)c2ccccc2)cc1C (stereo not given)
The cytotoxicity at 70.5 h of the first is higher: 1.21% for the first, -4.57% for the second.

Going from `CC(C)CC(NC(=O)c1cccc(F)c1F)C(=O)Nc1cc[nH]n1` (stereo not given) to `O=C(NCCCNC(=O)c1ccc(F)cc1F)c1cccc(O)c1`, the cytotoxicity at 70.5 h falls from -1.3% to -1.34%.

First: N#Cc1c(Cl)nsc1NCc1ccc(N2CCSCC2)cc1
Second: Cc1nnc(NCc2ccc(N3CCC(CO)CC3)cc2)c(C#N)c1C
The cytotoxicity at 70.5 h of the first is higher: 12.7% for the first, -1.7% for the second.

Compared with `Cc1cccc(N2CCN(CCC(=O)NCc3nnc[nH]3)CC2)c1`, `CC(C)OCCC(=O)NCCC(=O)N1CCN(c2ccccn2)CC1` is lower in cytotoxicity at 70.5 h: -1.67% for the first, -3.84% for the second.

Compared with `O=C(CS(=O)(=O)c1cccc[n+]1[O-])NC1CCCc2ccccc21` (stereo not given), `CC(C)NC(=O)c1nnn(-c2ccccc2)c1C1CC1` is lower in cytotoxicity at 70.5 h: 1.9% for the first, -6.4% for the second.

Compared with `Cc1cn2c(CN(C)C(=O)c3cnc(N)c(Cl)c3)c(C)nc2s1`, `Cc1ccc(C(=O)N(C)Cc2cc(Br)cs2)cn1` is lower in cytotoxicity at 70.5 h: 11.9% for the first, -8.7% for the second.

First: N#Cc1cccc(CN(CC(=O)N2CCCC2)CC2CCCO2)c1 (stereo not given)
Second: O=C(CN(Cc1cccc(F)c1)CC1CCCO1)N1CCCC1 (stereo not given)
The cytotoxicity at 70.5 h of the first is lower: 0.804% for the first, 13.7% for the second.

Going from `Cc1cc(CN(C)CCN(C)c2ccccc2)no1` to `CCc1nc(C(=O)N2CCOCC2CC(=O)c2ccccc2)c[nH]1` (stereo not given), the cytotoxicity at 70.5 h falls from 0.0635% to -8.59%.

Going from `CCSCCC(C)N(C)C(=O)c1ccc(C)o1` (stereo not given) to `CCc1noc(C)c1C(=O)NCc1cc[nH]n1`, the cytotoxicity at 70.5 h rises from -1.62% to 0.164%.

Going from `N#Cc1csc(CN(CC(=O)N2CCCC2)CC2CCCO2)c1` (stereo not given) to `O=C(c1cnc(NCCC2CCCO2)c(Cl)c1)N1CCOCC1` (stereo not given), the cytotoxicity at 70.5 h falls from 0.764% to -7.98%.

First: CN(CCCNC(=O)Nc1ccc(C#N)cc1)CC(F)(F)F
Second: CN(CCCNC(=O)c1ccc(C#N)cc1)CC(F)(F)F
The cytotoxicity at 70.5 h of the first is higher: 40.9% for the first, 5.13% for the second.

First: Cc1ccc(C)c(Oc2ccc(CNC(=O)C3CCS(=O)(=O)C3)cn2)c1 (stereo not given)
Second: CCNC(=O)NCc1ccc(CN2CCCC(C)C2)cc1 (stereo not given)
The cytotoxicity at 70.5 h of the first is lower: -10.1% for the first, -0.573% for the second.

First: COC(=O)c1ccc(OCC(=O)N(C)Cc2ccsc2)c(OC)c1
Second: COc1ccc(Br)cc1CC(=O)Nc1cc(C)n[nH]1
The cytotoxicity at 70.5 h of the first is lower: -5.54% for the first, 25.5% for the second.

Compared with `COc1ccc(CC(=O)N2CCC(c3nncn3C)CC2)cc1F`, `CCn1cnnc1C1CCN(C(=O)c2ccc(OC(C)C)nc2)CC1` is higher in cytotoxicity at 70.5 h: -10.5% for the first, 5.53% for the second.

First: Cc1cc(C)c(CNC(=O)N2CCC(N3CCCCC3)CC2)c(=O)[nH]1
Second: Cc1cc(C)c(CNC(=O)N2CCC(N3CCNC3=O)CC2)c(C)c1
The cytotoxicity at 70.5 h of the first is higher: -7.65% for the first, -7.95% for the second.

First: Cc1nc(COc2ccc(OCC(N)=O)cc2)oc1C
Second: Cc1nc(COc2ccc(OC(C)C(N)=O)cc2)oc1C (stereo not given)
The cytotoxicity at 70.5 h of the first is lower: -8.19% for the first, -0.152% for the second.

Going from `O=C1CN(C(=O)c2cc(Cl)ccc2F)c2ccncc2N1` to `Cc1cc(C(=O)N2CC(=O)Nc3cnccc32)c(Cl)cc1F`, the cytotoxicity at 70.5 h rises from -8.1% to -1.87%.

First: CC(C)c1nsc(N2CCOC3(CCCC3)C2)n1
Second: Cc1noc(C(C)N2CCN(CC(=O)N3CCCC3)CC2)n1 (stereo not given)
The cytotoxicity at 70.5 h of the first is lower: -2.46% for the first, -1.93% for the second.

Going from `COCCN1CCC(NC(=O)NCC2(c3cccc(F)c3)CC2)C1` (stereo not given) to `CCN1CCC(NC(=O)c2ccc(F)cc2I)CC1`, the cytotoxicity at 70.5 h rises from -8.45% to -7.1%.

Compared with `CC1CN(C(=O)NCc2cccc(C#N)c2)CCN1CC(F)(F)F` (stereo not given), `CC1CN(C(=O)Nc2cccc(CN3CCOC3=O)c2)CCO1` (stereo not given) is lower in cytotoxicity at 70.5 h: -7.28% for the first, -9.66% for the second.

First: Cc1cc(C2CCCN(Cc3ncc(C(C)C)o3)C2)n[nH]1 (stereo not given)
Second: CCCC(=O)NC1CCCN(C(=O)c2ccc(C)nc2)C1 (stereo not given)
The cytotoxicity at 70.5 h of the first is lower: -6.54% for the first, 14.6% for the second.

Compared with `O=C(CC1COCCN1C(=O)c1cscn1)c1ccccc1` (stereo not given), `CC(C)c1ncc(C(=O)N2CCOCC2CC(=O)c2ccco2)s1` (stereo not given) is higher in cytotoxicity at 70.5 h: -11.8% for the first, -2.34% for the second.

First: Cc1nc(-c2cccc(C#N)c2)nn1CC1(O)CCCCC1
Second: N#Cc1cccc(-c2ncnn2CC2(O)CCCCC2)c1
The cytotoxicity at 70.5 h of the first is higher: 3.88% for the first, -3.16% for the second.

First: N#CCCCOc1cccc(CN2CCCC2c2ccc[nH]2)c1 (stereo not given)
Second: Fc1ccc(C2CCCN2Cc2nnnn2C2CC2)cc1 (stereo not given)
The cytotoxicity at 70.5 h of the first is lower: 1.38% for the first, 28.2% for the second.

First: COCc1cccc(C(=O)N2CCCC2)c1
Second: O=C(Nc1cccc(CN2CCOC2=O)c1)N1CCCC1
The cytotoxicity at 70.5 h of the first is higher: 4.08% for the first, -6.57% for the second.

Compared with `Cc1cc(Br)ccc1NCC(=O)Nc1cc(C(C)(C)C)no1`, `COCCOCC(=O)Nc1ccc(F)cc1C` is higher in cytotoxicity at 70.5 h: -4.88% for the first, 11.3% for the second.

First: Cc1cc(C(=O)NC2CCN(c3ncccc3C#N)CC2)no1
Second: Cc1ncsc1C(=O)NC1CCN(c2ncccc2C#N)CC1
The cytotoxicity at 70.5 h of the first is higher: -2.85% for the first, -6.11% for the second.

Going from `CCc1ccc(C(C)NC(=O)CCc2nc(-c3nnc[nH]3)no2)cc1` (stereo not given) to `COc1cccc(CC(=O)NCC(Cc2ccc(F)cc2)C(N)=O)c1` (stereo not given), the cytotoxicity at 70.5 h falls from -4.48% to -4.64%.

First: Cn1c(C2CCCCN2C(=O)CN2CCCC2=O)nc2ccccc21 (stereo not given)
Second: CCc1ccc(C2CCCCCN2C(=O)CNC(=O)C2CC2)o1 (stereo not given)
The cytotoxicity at 70.5 h of the first is higher: 21.3% for the first, -1.46% for the second.

Going from `CCC(=O)NC1CCCN(C(=O)c2ccc(OCC3CC3)nc2)C1` (stereo not given) to `CCc1ccc(C2CCCCCN2C(=O)CNC(=O)NC2CC2)o1` (stereo not given), the cytotoxicity at 70.5 h falls from 15.5% to -1.33%.

First: Cc1cn2c(n1)CCC(NS(=O)(=O)c1ccc(C)s1)C2 (stereo not given)
Second: CCOc1ncccc1NC(=O)c1ccc(C)s1
The cytotoxicity at 70.5 h of the first is higher: -1.48% for the first, -7.78% for the second.

First: CC(C)(C)[S+]([O-])CCNC(=O)c1csc(NC2CC2)n1 (stereo not given)
Second: O=C(NC1CC1)c1nnn(-c2cccc(C(F)(F)F)c2)c1C1CC1
The cytotoxicity at 70.5 h of the first is higher: 12.6% for the first, -8.39% for the second.

Going from `Cc1cc(NC(=O)N2CCOCC2)nn1-c1ccccc1Cl` to `CC1CCCN(C(=O)Nc2cccc(CN3CCOC3=O)c2)C1` (stereo not given), the cytotoxicity at 70.5 h rises from -5.4% to 35.6%.

Going from `c1ncc2c(n1)CN(Cc1cn3ccsc3n1)CC2` to `Cc1ncsc1C(=O)N1CCN(Cc2cscn2)CC1`, the cytotoxicity at 70.5 h rises from -4.44% to -1.83%.

Going from `CC(NC1(CNC(=O)NC2CC2)CCOCC1)c1ccccc1` (stereo not given) to `COCCN1C(=O)CC(N2CCN(c3ccccc3)CC2)C1=O` (stereo not given), the cytotoxicity at 70.5 h falls from 14.3% to -3.99%.

Compared with `CC(C)C(=O)NCCC(=O)N1CCN(c2ccccn2)CC1`, `Cc1noc(C(C)N2CCN(CCC(=O)N3CCOCC3)CC2)n1` (stereo not given) is lower in cytotoxicity at 70.5 h: -4.63% for the first, -5.76% for the second.

First: Cc1nc(C2(NCC(=O)NC(=O)NCC(F)(F)F)CCCCC2)no1
Second: Cc1cccc(CNC(=O)Nc2cc(C(F)(F)F)c[nH]c2=O)n1
The cytotoxicity at 70.5 h of the first is higher: 13.9% for the first, -6.24% for the second.

Compared with `COCCOCC(=O)Nc1ccc(C)cc1Cl`, `CCCc1nc(C)c(C(=O)Nc2cccc(C)n2)s1` is higher in cytotoxicity at 70.5 h: -0.473% for the first, 23.8% for the second.

Compared with `O=C(C1CC=CC1)N1CCC2(CC1)OCCO2`, `CCc1nnc2n1CCN(C(=O)c1ccc3[nH]nnc3c1)C2` is lower in cytotoxicity at 70.5 h: -4.94% for the first, -8.74% for the second.

Going from `NC(=O)COc1ccc(CNCc2c(F)cccc2F)cc1` to `NC(=O)COc1ccc(CNCc2cc(F)cc(F)c2)cc1`, the cytotoxicity at 70.5 h falls from -3.08% to -8.73%.

First: CCc1nnc2n1CCN(C(=O)c1ccc3c(c1)[nH]c(=O)n3C)C2
Second: Cc1nc2ccc(C(=O)N3CCn4c(C)nnc4C3)cc2nc1C
The cytotoxicity at 70.5 h of the first is higher: -2.36% for the first, -5.63% for the second.

`NC(=O)COc1ccc(CNCc2ccc(F)cc2)cc1` showed a cytotoxicity at 70.5 h of -4.15%.
